The first experiment concerns HCV 1b genotype. Nature of the experiment: HCV replicon assay (HCV-neo replicon cells, wild-type). Type of experiment: cell-based, Hepatitis C virus. The settings on record: HCV 1b genotype replicon; class symbol; read-out: EC50 Range against HCV 1b. An outline of the steps:
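Inhibition was tested in replicon-bearing cells, both wild-type HCV-neo and lines with NS5A resistance substitutions, using the O'Boyle et al. 2005 replicon method or luciferase-reporter formats.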
Usually EC50 stands for the concentration giving half of the maximal effect. Turning to `CC1(C(=O)N2CCC[C@H]2C(=O)Nc2ccc(-c3cnc(-c4ccc(NC(=O)[C@@H]5CCCN5C(=O)C5(C)CCC(=O)N5)cc4)o3)cc2)CCC(=O)N1` (stereo partly drawn) [Example D-24, (2S,2′S)-N,N′-(4,4′-(oxazole-2,5-diyl)bis(4,1-phenylene))bis(1-(2-methyl-5-oxopyrrolidine-2-carbonyl)pyrrolidine-2-carboxamide)], the EC50 was 1 to 10 µM. In the case of `CC(C)(C)OC(=O)N1CCCC1C(=O)N1CCCC1C(=O)Nc1ccc(-c2cnc(-c3ccc(NC(=O)C4CCCN4C(=O)C4CCCN4C(=O)OC(C)(C)C)cc3)o2)cc1` [Example D-28, di-tert-butyl (2R,2′R)-2,2′-(1,3-oxazole-2,5-diylbis(4,1-phenylenecarbamoyl(2S)-2,1-pyrrolidinediylcarbonyl))di(1-pyrrolidinecarboxylate)], the EC50 fell in the range of 1 to 10 µM.

In the case of `CC(C)(C)OC(=O)N1CCCC1(C)C(=O)N1CCC[C@H]1C(=O)Nc1ccc(-c2cnc(-c3ccc(NC(=O)[C@@H]4CCCN4C(=O)C4(C)CCCN4C(=O)OC(C)(C)C)cc3)o2)cc1` (stereo partly drawn) [Example D-30, di-tert-butyl 2,2′-(1,3-oxazole-2,5-diylbis(4,1-phenylenecarbamoyl(2S)-2,1-pyrrolidinediylcarbonyl))bis(2-methyl-1-pyrrolidinecarboxylate)], the EC50 lay within 1 to 10 µM.

Still in this experiment, the particulars now being: HCV 1b genotype replicon; read-out: EC50 1b.
With `CC1(C(=O)N2CCC[C@H]2C(=O)Nc2ccc(-c3cnc(-c4ccc(NC(=O)[C@@H]5CCCN5C(=O)C5(C)CCC(=O)N5)cc4)o3)cc2)CCC(=O)N1` (stereo partly drawn) [Example D-24, (2S,2′S)-N,N′-(4,4′-(oxazole-2,5-diyl)bis(4,1-phenylene))bis(1-(2-methyl-5-oxopyrrolidine-2-carbonyl)pyrrolidine-2-carboxamide)], the EC50 was 5.14 µM.

The experiment is the same for the next values; noted with them: Hepatitis C virus, HCV 1b genotype replicon; class symbol; read-out: EC50 Range against HCV 1b.
On to `O=C(Nc1ccc(-c2cnc(-c3ccc(NC(=O)[C@@H]4CCCN4C(=O)CC4CC4)cc3)o2)cc1)C1CCCN1C(=O)CC1CC1` (stereo partly drawn) [Example D-20, (2′S)-N,N′-(1,3-oxazole-2,5-diyldi-4,1-phenylene)bis(1-(cyclopropylacetyl)-2-pyrrolidinecarboxamide)], for which the EC50 lay in the range of 0.1 to 0.999 µM. Turning to `O=C(Nc1ccc(-c2nc[nH]c2-c2ccc(NC(=O)[C@@H]3CCCN3C(=O)[C@H](O)c3ccccc3)cc2)cc1)[C@@H]1CCCN1C(=O)[C@H](O)c1ccccc1` [JG-43, (2S,2′S)-N,N′-(1H-imidazole-4,5-diyldi-4,1-phenylene)bis(1-((2R)-2-hydroxy-2-phenylacetyl)-2-pyrrolidinecarboxamide)], the concentration giving a half-maximal response (EC50) was less than 0.00457 µM. With `O=C(Nc1ccc(-c2cnc(-c3ccc(NC(=O)[C@@H]4CCCCN4C(=O)Cc4ccccc4)cc3)o2)cc1)[C@@H]1CCCCN1C(=O)Cc1ccccc1` [JG-6, (2S,2′S)-N,N′-(1,3-oxazole-2,5-diyldi-4,1-phenylene)bis(1-(phenylacetyl)-2-piperidinecarboxamide)], the EC50 is 0.1 to 0.999 µM. `C[C@H](NC(=O)[C@@](C)(O)c1ccccc1)C(=O)Nc1ccc(-c2cnc(-c3ccc(NC(=O)[C@H](C)NC(=O)[C@@](C)(O)c4ccccc4)cc3)o2)cc1` [OL-56, ((2S,2′S)-N,N′-(1,3-oxazole-2,5-diylbis(4,1-phenyleneimino((2S)-1-oxo-1,2-propanediyl)))bis(2-hydroxy-2-phenylpropanamide))]: the EC50 is less than 0.00457 µM. As for `CC(=O)N1CCC[C@H]1C(=O)Nc1ccc(-c2nc(-c3ccc(NC(=O)[C@@H]4C=CCN4C(=O)[C@H]4CCCO4)cc3)cs2)cc1` [Example D-51, (2S)-N-[4-[2-[4-[[[(2S)-1-acetyl-2-pyrrolidinyl]carbonyl]amino]phenyl]-4-thiazolyl]phenyl]-2,5-dihydro-1-[[(2R)-tetrahydro-2-furanyl]carbonyl]-1H-pyrrole-2-carboxamide], the EC50 lay within 1 to 10 µM. On to `CC(=O)N1CCC[C@H]1C(=O)Nc1ccc(-c2nc(-c3ccc(NC(=O)[C@@H]4C=CCN4C(=O)Cc4cccs4)cc3)cs2)cc1` [Example D-48, (2S)-N-[4-[2-[4-[[[(2S)-1-acetyl-2-pyrrolidinyl]carbonyl]amino]phenyl]-4-thiazolyl]phenyl]-2,5-dihydro-1-(2-thienylacetyl)-1H-pyrrole-2-carboxamide], for which the EC50 is 0.1 to 0.999 µM. In the case of `O=C(Nc1ccc(-c2nc[nH]c2-c2ccc(NC(=O)[C@@H]3C[C@@H](O)CN3C(=O)Cc3ccccc3)cc2)cc1)[C@@H]1C[C@@H](O)CN1C(=O)Cc1ccccc1` [OL-11], the EC50 lay in the range of 0.1 to 0.999 µM. On to `O=C(Nc1ccc(-c2nc[nH]c2-c2ccc(NC(=O)[C@@H]3CCCN3C(=O)c3nc(Cl)cc4ccccc34)cc2)cc1)[C@@H]1CCCN1C(=O)c1nc(Cl)cc2ccccc12` [JG-49, (2S,2′S)-N,N′-(1H-imidazole-4,5-diyldi-4,1-phenylene)bis(1-((3-chloro-1-isoquinolinyl)carbonyl)-2-pyrrolidinecarboxamide)], for which the EC50 was 1 to 10 µM. On the same count and under the same terms, for `COc1ccccc1C(=O)N1CCC[C@H]1C(=O)Nc1ccc(-c2nnc(-c3ccc(NC(=O)[C@@H]4CCCN4C(=O)c4ccccc4OC)cc3)o2)cc1` [RK-6, (2S,2′S)-N,N′-(1,3,4-oxadiazole-2,5-diyldi-4,1-phenylene)bis(1-(2-methoxybenzoyl)-2-pyrrolidinecarboxamide)] the value was 0.1 to 0.999 µM; for `O=C(Nc1ccc(-c2nc[nH]c2-c2ccc(NC(=O)[C@@H]3CCCN3C(=O)OCc3ccccc3)cc2)cc1)[C@@H]1CCCN1C(=O)OCc1ccccc1` [OL-7, (2S,2′S)-2,2′-[1H-imidazole-4,5-diylbis(4,1-phenyleneiminocarbonyl)]bis-1-pyrrolidinecarboxylic acid, bis(phenylmethyl) ester], 0.00457 to 0.099 µM; for `CC(=O)N1CC=C[C@H]1C(=O)Nc1ccc(-c2cc(-c3ccc(NC(=O)[C@@H]4C=CCN4C(C)=O)cc3)[nH]n2)cc1` [OL-30, (2S,2′S)-N,N′-(1H-pyrazole-3,5-diyldi-4,1-phenylene)bis(1-acetyl-2,5-dihydro-1H-pyrrole-2-carboxamide)], 1 to 10 µM.

Still in this experiment, the particulars now being: Hepatitis C virus, HCV 1b genotype replicon; class symbols; read-out: EC50 Range against HCV 1b.
`O=C(Nc1ccc(-c2cnc(-c3ccc(NC(=O)[C@@H]4C[C@@H](O)CN4C(=O)C4CCCCC4)cc3)o2)cc1)[C@@H]1C[C@@H](O)CN1C(=O)C1CCCCC1` [XY-48, (2S,4R,2′S,4′R)-N,N′-(1,3-oxazole-2,5-diyldi-4,1-phenylene)bis(1-(cyclohexylcarbonyl)-4-hydroxy-2-pyrrolidinecarboxamide)]: the EC50 lay within 1 to 10 µM. Regarding `O=C(Nc1ccc(-c2cnc(-c3ccc(NC(=O)[C@@H]4CCCN4C(=O)CN4C(=O)OC[C@@H]4c4ccccc4)cc3)o2)cc1)[C@@H]1CCCN1C(=O)CN1C(=O)OC[C@@H]1c1ccccc1` [JR-20, (2S,2′S)-N,N′-(2,5-oxazolediyldi-4,1-phenylene)bis[1-[[(4S)-2-oxo-4-phenyl-3-oxazolidinyl]acetyl]-2-pyrrolidinecarboxamide]], the EC50 was in the range of 1 to 10 µM. Same read-out and setting: the same measure for `O=C(Nc1ccc(-c2cnc(-c3ccc(NC(=O)[C@@H]4C[C@@H](O)CN4C(=O)c4cccs4)cc3)o2)cc1)[C@@H]1C[C@@H](O)CN1C(=O)c1cccs1` [XY-54, (2S,4R,2′S,4′R)-N,N′-(1,3-oxazole-2,5-diyldi-4,1-phenylene)bis(4-hydroxy-1-(2-thienylcarbonyl)-2-pyrrolidinecarboxamide)]: 1 to 10 µM. With `O=C(Nc1ccc(-c2cnc(-c3ccc(NC(=O)[C@@H]4CCCN4C(=O)Cn4c(=O)[nH]c5ccccc54)cc3)o2)cc1)[C@@H]1CCCN1C(=O)Cn1c(=O)[nH]c2ccccc21` [JR-9, (2S,2′S)-N,N′-(2,5-oxazolediyldi-4,1-phenylene)bis[1-[(2,3-dihydro-2-oxo-1H-benzimidazol-1-yl)acetyl]-2-pyrrolidinecarboxamide]], the EC50 lay within 0.1 to 0.999 µM.

The experiment is the same for the next values; noted with them: Hepatitis C virus, HCV 1b genotype replicon; read-out: EC50 1b.
Consider `CC(=O)N1CCC[C@H]1C(=O)Nc1ccc(-c2nc(-c3ccc(NC(=O)[C@@H]4C=CCN4C(=O)[C@H]4CCCO4)cc3)cs2)cc1` [Example D-51, (2S)-N-[4-[2-[4-[[[(2S)-1-acetyl-2-pyrrolidinyl]carbonyl]amino]phenyl]-4-thiazolyl]phenyl]-2,5-dihydro-1-[[(2R)-tetrahydro-2-furanyl]carbonyl]-1H-pyrrole-2-carboxamide], for which the EC50 worked out at 3.43 µM.

(Values after US8735398B2 (Bristol-Myers Squibb Company, priority 2009, dated 2014).)
